The values below come from patent publication US11524966B1 (Valo Early Discovery, Inc., priority 2017, dated 2022).

This experiment concerns the target T1, USP28 (USP28-5(1-1077)-TEV-6*His; LifeSensors) (Homo sapiens, UniProt Q96RU2).
T1 construct: construct USP28 (USP28-5(1-1077)-TEV-6*His; LifeSensors); TEV cleavage site (C); 6xHis (C); purchased LifeSensors
T1 sequence (Q96RU2 1-1077): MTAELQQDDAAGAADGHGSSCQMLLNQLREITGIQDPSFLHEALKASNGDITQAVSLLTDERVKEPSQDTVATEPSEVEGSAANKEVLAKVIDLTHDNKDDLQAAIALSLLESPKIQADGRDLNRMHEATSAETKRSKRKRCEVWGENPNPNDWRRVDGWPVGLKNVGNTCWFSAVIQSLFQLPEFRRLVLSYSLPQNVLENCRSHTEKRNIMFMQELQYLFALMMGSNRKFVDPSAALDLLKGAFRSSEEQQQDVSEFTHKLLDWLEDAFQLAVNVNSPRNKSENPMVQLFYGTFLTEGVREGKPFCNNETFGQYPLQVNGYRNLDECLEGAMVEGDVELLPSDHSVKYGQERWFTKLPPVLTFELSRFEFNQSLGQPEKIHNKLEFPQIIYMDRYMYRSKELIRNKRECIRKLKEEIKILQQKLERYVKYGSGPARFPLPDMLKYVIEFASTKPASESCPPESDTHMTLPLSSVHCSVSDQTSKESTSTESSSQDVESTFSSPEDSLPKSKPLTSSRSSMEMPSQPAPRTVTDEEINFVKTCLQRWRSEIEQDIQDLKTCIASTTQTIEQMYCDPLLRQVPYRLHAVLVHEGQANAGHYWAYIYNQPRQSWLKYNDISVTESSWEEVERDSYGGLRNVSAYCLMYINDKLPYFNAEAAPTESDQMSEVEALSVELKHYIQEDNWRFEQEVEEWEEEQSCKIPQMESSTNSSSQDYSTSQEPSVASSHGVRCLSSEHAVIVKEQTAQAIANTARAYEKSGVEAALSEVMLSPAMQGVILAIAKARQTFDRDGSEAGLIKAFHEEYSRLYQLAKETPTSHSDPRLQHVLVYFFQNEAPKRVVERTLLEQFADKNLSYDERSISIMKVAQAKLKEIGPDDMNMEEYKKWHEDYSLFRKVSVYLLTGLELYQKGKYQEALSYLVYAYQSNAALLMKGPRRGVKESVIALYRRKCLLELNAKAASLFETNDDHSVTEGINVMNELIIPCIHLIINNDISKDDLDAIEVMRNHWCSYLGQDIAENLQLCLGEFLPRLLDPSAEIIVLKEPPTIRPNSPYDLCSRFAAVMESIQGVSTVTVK
Description: Ubiquitin-Rhodamine 110 Assay for USP28 Activity, Example A-1(b). Particulars: Ubiquitin-Rhodamine 110 assay, Example A-1(b). Type of experiment: biochemical. The method in brief: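 Single-point screening used 10 μM compound with 90 min room-temperature incubation; follow-up dose-responses (25 μM top, 3-fold) used 75 pM USP28 1-1077 construct, 30 min compound preincubation, 25 nM Ub-Rh110, 20 min reaction, citric acid quench. Rh110 fluorescence normalised to no-enzyme and DMSO controls; IC50 from 4-parameter logistic fit.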

On to `Cc1ccc2c(N)c(C(=O)N[C@H]3COc4cc(N5C[C@@H](F)[C@@H](N)C5)ccc4C3)sc2n1` (single isomer, unassigned) [Example 3-6], for which the “USP28 A-1(b) IC50 range” value is given as “++ (0.2-2 μM)”.

Regarding `Cc1ccc2c(N)c(C(=O)N[C@H]3COc4cc(N5C[C@@H](N)[C@@H](F)C5)ccc4C3)sc2n1` (single isomer, unassigned) [Example 3-5], the “USP28 A-1(b) IC50 range” value is “+++ (0.05-0.2 μM)”.
